Our source for the EC50, IC50 and CC50 values is US10358453B2, “Antiviral compounds” (priority 2015, dated 2019).

Where two headings read alike, the source gives them in different places.

For series [1], the system named is RSV subgenomic replicon 395 HeLa and APC126. As to the kind of experiment: RSV subgenomic replicon assay (Renilla luciferase). It counts as cell-based. The following applies: human respiratory syncytial virus; RSV replicon cells (395 HeLa 7 days or APC126 3 days); Table G = less than 1 μM, Table H = equal to or higher than 1 μM and less than 50 μM. In short, it runs like this: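 Replicon cells (RSV with SH, G, F replaced by blasticidin resistance; 395 HeLa or BHK-derived APC126) exposed to 9-point 1:3 compound dilutions in 1% DMSO for 7 days (395 HeLa) or 3 days (APC126) at 37 °C. Renilla luciferase luminescence read; EC50 is concentration cutting signal 50% versus untreated cells.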
On the technique in general: A replicon is a self-replicating genome or part of one, used to study replication in cells.

Series [2] relates to Respiratory Syncytial Virus (RSV) long strain. As to the kind of experiment: RSV antiviral assay (CPE reduction, CCK-8 readout). The following applies: human respiratory syncytial virus. Format: cell-based. How it is done:
CPE reduction assays are performed as described by Sidwell and Huffman et al., Appl. Microbiol. […] Compounds are added into 384-well cell plates by Labcyte POD 810 Plate Assembler system. Each of the test compounds is provided to duplicate wells of a 384-well cell plate at final concentrations starting from 100 μM or 1 μM using 1/3 stepwise dilutions for 9 points. Quick-thaw Respiratory Syncytial Virus (RSV) long strain (ATCC#VR-26) stock in a 37° C. water bath. Place on ice until ready to use. Viruses are diluted to the concentration of 100 TCID50/30 μL with medium and 30 μl diluted RSV are added into related wells of 384-well cell plates. For each plate, sixteen wells are set aside as uninfected, untreated cell controls (CC), and nine wells per test plate receive virus only as a control for virus replication (VC). The final DMSO concentration of all wells is 1%. Place the plates at 37° C., 5% CO2 for 5 days.
After 5 days incubation, observe the CPE of cells in all wells. […] Six μl of cell counting kit-8 reagent (CCK-8, Dojindo Molecular Technologies Inc., CK04-20) are added to each well, which allows colorimetric assays to determine the number of viable cells through the dehydrogenase activity detection. After 3-4 hour incubation, the absorbance of each well is measured with a spectrophotometric plate reader at 450 nm wavelength, using a 630 nm filter as background according to manufacturer's instruction.

Another series addresses recombinant RSV complex (Human respiratory syncytial virus A, UniProt P28887). As to the kind of experiment: RSV polymerase inhibition assay. The note with it: 10 nM recombinant RSV complex, 2 h at 30° C.; Table E = <1 μM, Table F = <50 μM; read-out: IC50. It counts as biochemical. A digest of the protocol: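 Inhibitor titrations run for 2 h at 30° C against 10 nM recombinant RSV complex, using RNA oligonucleotide template and radiolabelled nucleotides in pH7.5 Tris-HCl, 6 mM MgCl2. After EDTA quench, scintillation counting of labelled RNA; sigmoidal fit gave the 50% rate-reduction concentration.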

The nature of series [3]: Cytotoxicity determination (CCK-8, without addition of virus). It counts as cell-based. The following applies: human, HEp-2 cells (uninfected), no virus, Table C = greater than 100 μM, Table D = equal to or less than 100 μM and greater than 10 μM. In short, it runs like this:
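HEp-2 cells, no virus, exposed to compound from 100 μM in ½ serial dilutions (7 points, duplicate, 1% DMSO) for 5 days at 37° C, 5% CO2. Viability by CCK-8 (3-4 h) optical density; CC50 calculated.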

Where [4] appears, read: 120 h, HEp-2 cells, RSV long strain, 5 days, Table A = less than 1 μM, Table B = equal to or higher than 1 μM and less than 50 μM, read-out: EC50.

recombinant RSV complex, sequence (P28887 whole entry): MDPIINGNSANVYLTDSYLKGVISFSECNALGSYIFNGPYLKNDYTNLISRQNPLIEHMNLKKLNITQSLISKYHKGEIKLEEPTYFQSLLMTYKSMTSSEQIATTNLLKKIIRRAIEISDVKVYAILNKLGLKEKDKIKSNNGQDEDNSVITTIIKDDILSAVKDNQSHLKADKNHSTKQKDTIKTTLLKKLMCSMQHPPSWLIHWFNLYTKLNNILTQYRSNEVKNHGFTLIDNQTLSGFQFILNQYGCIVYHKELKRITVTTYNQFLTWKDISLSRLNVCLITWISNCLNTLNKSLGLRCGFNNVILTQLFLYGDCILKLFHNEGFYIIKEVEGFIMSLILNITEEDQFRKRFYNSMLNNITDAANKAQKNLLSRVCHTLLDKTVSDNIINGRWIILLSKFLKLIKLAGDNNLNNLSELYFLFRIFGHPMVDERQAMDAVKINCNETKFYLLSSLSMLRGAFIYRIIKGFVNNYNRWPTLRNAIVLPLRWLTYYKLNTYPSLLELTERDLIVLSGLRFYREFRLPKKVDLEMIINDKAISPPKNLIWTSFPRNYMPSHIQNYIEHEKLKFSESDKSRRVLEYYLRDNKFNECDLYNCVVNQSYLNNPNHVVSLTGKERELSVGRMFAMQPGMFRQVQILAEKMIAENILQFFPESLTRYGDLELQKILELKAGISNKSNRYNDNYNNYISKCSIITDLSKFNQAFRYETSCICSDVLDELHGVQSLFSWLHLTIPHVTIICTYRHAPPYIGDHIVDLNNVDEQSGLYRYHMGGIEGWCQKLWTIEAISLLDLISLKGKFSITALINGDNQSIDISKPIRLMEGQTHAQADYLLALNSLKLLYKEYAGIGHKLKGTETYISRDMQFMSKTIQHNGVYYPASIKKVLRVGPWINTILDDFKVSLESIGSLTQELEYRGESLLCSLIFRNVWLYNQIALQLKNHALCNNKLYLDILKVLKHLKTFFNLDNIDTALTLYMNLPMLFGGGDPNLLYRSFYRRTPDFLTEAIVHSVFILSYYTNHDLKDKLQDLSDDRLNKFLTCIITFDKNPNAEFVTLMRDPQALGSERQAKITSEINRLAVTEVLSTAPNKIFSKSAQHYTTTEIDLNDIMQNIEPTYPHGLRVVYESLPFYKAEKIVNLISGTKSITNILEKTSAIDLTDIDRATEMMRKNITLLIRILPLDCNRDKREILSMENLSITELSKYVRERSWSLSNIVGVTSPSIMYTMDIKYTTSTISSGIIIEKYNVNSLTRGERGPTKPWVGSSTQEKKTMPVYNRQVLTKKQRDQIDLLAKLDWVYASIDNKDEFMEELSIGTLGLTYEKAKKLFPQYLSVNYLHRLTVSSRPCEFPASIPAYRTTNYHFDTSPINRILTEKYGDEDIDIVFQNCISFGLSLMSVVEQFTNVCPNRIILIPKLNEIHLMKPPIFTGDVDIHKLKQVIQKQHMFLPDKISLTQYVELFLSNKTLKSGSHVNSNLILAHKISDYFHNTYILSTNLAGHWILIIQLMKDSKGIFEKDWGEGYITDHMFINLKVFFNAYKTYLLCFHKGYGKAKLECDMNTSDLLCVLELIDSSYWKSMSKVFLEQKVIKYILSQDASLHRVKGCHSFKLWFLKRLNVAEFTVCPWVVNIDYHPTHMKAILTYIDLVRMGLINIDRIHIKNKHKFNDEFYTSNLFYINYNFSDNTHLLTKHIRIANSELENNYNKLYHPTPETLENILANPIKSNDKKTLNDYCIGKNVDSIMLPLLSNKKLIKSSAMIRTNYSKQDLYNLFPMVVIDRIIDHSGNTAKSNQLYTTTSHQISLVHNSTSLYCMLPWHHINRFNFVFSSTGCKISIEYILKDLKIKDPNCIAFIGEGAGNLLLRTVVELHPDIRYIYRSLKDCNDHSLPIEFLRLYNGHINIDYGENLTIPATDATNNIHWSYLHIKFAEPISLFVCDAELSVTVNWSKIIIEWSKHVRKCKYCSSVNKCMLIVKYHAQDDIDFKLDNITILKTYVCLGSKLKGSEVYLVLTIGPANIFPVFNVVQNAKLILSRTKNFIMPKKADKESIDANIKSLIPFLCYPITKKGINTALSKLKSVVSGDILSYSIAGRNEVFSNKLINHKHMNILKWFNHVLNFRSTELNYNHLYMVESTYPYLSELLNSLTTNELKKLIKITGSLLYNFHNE
recombinant RSV complex, sequence (P03421 whole entry, further chain): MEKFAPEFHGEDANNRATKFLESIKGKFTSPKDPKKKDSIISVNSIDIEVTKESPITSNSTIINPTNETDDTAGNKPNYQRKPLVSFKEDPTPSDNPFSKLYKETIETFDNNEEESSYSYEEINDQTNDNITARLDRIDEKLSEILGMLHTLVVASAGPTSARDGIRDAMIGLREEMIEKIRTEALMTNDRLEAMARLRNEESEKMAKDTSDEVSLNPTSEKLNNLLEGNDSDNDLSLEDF

As usually defined, the EC50 is the concentration needed to bring the measured effect to its halfway point. For orientation: IC50 means the concentration that inhibits the measured activity by half. For `COc1cc(C(=O)NCC(O)(c2cc3c(c(-c4ccc(F)cc4)n2)OCC3(N)CO)C(F)(F)F)cc2cccnc12` (single isomer, unassigned) [Compound 2], the EC50 in series [1] and in series [2] (setting [4]) was below 1000 nM throughout. Also, the IC50 on recombinant RSV complex was below 1000 nM.

As usually defined, the CC50 is the concentration at which the toxic effect on the cells reaches its halfway point. High values mean better tolerance by the cells, low ones harm at low concentration. For `COc1cc(C(=O)NCC(O)(c2cc3c(c(-c4ccc(F)cc4)n2)OCC3(N)CO)C(F)(F)F)cc2cccnc12` (centres unmarked) [Compound 1], the EC50 in series [1] was below 1000 nM; in series [2] (HEp-2, 120 h), below 1000 nM. In series [3], this molecule came in with a CC50 at 5 days of 10000 to 100000 nM. Moreover, on recombinant RSV complex, the IC50 is below 1000 nM.

Regarding `COc1cc(C(=O)NCC(O)(c2cc3c(c(-c4ccc(F)cc4)n2)OCC3(C)N)C(F)(F)F)cc2c1NC(=O)C2=O` (centres unmarked) [Compound 10], the EC50 in series [1] and in series [2] (setting [4]) was 1000 to 50000 nM each time. In series [3], this molecule displayed a CC50 at 5 days of 10000 to 100000 nM. Further, the IC50 at recombinant RSV complex is below 50000 nM.

For the molecule `CC1(N)COc2c1cc(C(O)(CNC(=O)c1ccc(OC3CC3)c(OCCO)c1)C(F)(F)F)nc2-c1ccc(F)cc1` (centres unmarked) [Compound 12], the EC50 in series [1] and in series [2] (setting [4]) was below 1000 nM in each case. Besides, the IC50 at recombinant RSV complex was below 1000 nM.
